Experimental data taken from PMC5908295 (Oncotarget, 2018).
Like-named read-outs stand apart in the source and are kept apart here.

Key:
SKM-1 = assay: MTS viability assay, 72 h; conditions: SKM-1, 72 h; for CC50: read-out: LC50
Method: (§4) On the same day, 50 μL of medium containing tested inhibitor was added to the wells. Each compound was tested at 8 concentrations, in triplicates. As a negative control, the medium containing 0.1% DMSO was used. […] Staurosporine was used at 10 μM as a positive control. One the day of drug addition, basal signal from untreated cells was measured from in triplicate to determine time zero (T0). […] GI50 and LC50 values were extrapolated from a variable (four-parameter) dose-response curve fitted in GraphPad Prism.

KASUMI-6 = assay: MTS viability assay, 72 h
Method: (§5) 15-25 ×10^3 of MV-4-11, MOLM-13, MOLM-14, MOLM-16, KG-1, Eol-1, SKM-1, PL-21, GDM-1, SKNO-1, RS4;11, Kasumi-3 and Kasumi-6 cells were seeded in 150 μL of culture medium onto individual wells in a 96 well plates, in triplicates. On the same day, 50 μL of medium containing tested inhibitor was added to the wells. Each compound was tested at 8 concentrations, in triplicates. As a negative control, the medium containing 0.1% DMSO was used. […] Staurosporine was used at 10 μM as a positive control. One the day of drug addition, basal signal from untreated cells was measured from in triplicate to determine time zero (T0). […] GI50 and LC50 values were extrapolated from a variable (four-parameter) dose-response curve fitted in GraphPad Prism.

RS4;11 = assay: MTS viability assay, 72 h; conditions: for CC50: read-out: LC50
Method: as §5

GDM-1 = assay: MTS viability assay, 72 h; conditions: GDM-1, 72 h
Method: as §5

KG-1 = assay: MTS viability assay, 72 h; conditions: KG-1, 72 h; for CC50: read-out: LC50
Method: as §5

MOLM-13 = assay: MTS viability assay, 72 h; conditions: MOLM-13, 72 h; for CC50: read-out: LC50
Method: as §5

KASUMI-3 = assay: MTS viability assay, 72 h; conditions: for CC50: read-out: LC50
Method: as §5

MOLM-14 = assay: MTS viability assay, 72 h; conditions: Homo sapiens, MOLM-14, 72 h
Method: as §5

EOL-1 = assay: MTS viability assay, 72 h
Method: as §5

SKNO-1 = assay: MTS viability assay, 72 h; conditions: SKNO-1, 72 h
Method: as §5

OCI-AML-2 = assay: MTS viability assay, 72 h
Method: as §4

MV-4-11 [1] = assay: MTS viability assay, 72 h
Method: as §4

MOLM-16 = assay: MTS viability assay, 72 h
Method: as §4

MOLM-6 = assay: MTS viability assay, 72 h; conditions: for CC50: read-out: LC50
Method: as §5

PL-21 = assay: MTS viability assay, 72 h; conditions: PL-21, 72 h
Method: as §5

OCI-AML-3 = assay: MTS viability assay, 72 h; conditions: OCI-AML-3, 72 h
Method: as §5

SIG-M5 = assay: MTS viability assay, 72 h; conditions: SIG-M5, 72 h; for CC50: read-out: LC50
Method: as §4

KG-1 (FLT3-WT) tumor = assay: KG-1 subcutaneous xenograft; type: in vivo; conditions: KG-1, SCID mice; doses not given
Description: (§1) All animals were handled in strict accordance with good animal practice as defined by the relevant national and local animal welfare bodies. SCID and SCID/beige C.B-17 mice were provided by Harlan Laboratories or Charles River Laboratories, and were maintained in pathogen free conditions. For the xenograft experiments, age-matched (9-11 weeks old) females were used. 5×10^6 of MV-4-11 or MOLM-16 cells were suspended in a mixture (1:1, v:v) of PBS with Matrigel (BD Biosciences,) and injected subcutaneously (sc), in a total volume of 100 μL, above the groin on the right hind limb. For MOLM-13 and KG-1 cells, a mixture (3:1, v:v) of PBS and Matrigel HC (BD Bioscience,) was used to inject 5 × 10^6 of cell per mouse subcutaneously (sc), in a total volume of 100 μL. When tumors reached 100-130 mm^3, mice were randomized into uniform groups (6-9 mice per group) and subsequently administered the compound. […] At the end of the experiment, mice were anesthetized with isofluran and blood samples for total cell counts and biochemistry were obtained by retro-orbital bleeding. […] 5×10^6 cells suspended in a mixture (3:1, v:v) of PBS and Matrigel were injected as described above. […] Tumor volume was monitored every second day and calculated using the formula: TV = (a^2×b)/2, where “a” is the short axis in millimeters, and “b” is the long axis in millimeters. Body weight was assessed every day.

MV-4-11 [2] = assay: Drug interactions (combination index), MTS; type: cell-based; conditions: MV-4-11
Method: and AC220 in AML cell lines was assessed using an MTS assay. Cells viability was measured after 72 h incubation with three-fold serial dilutions of compounds, starting at 10 µM concentration. Obtained data were presented as percentage of viable cells compared with control (untreated) cells viability. Error bars indicate SD.
11 cells. Combination index (CI) are shown on the Y axis and compound concentrations are shown on X and Z axes. Values […] and below 0.7- a synergy between tested compounds. Values above 1 indicate an antagonistic effect.
(1 picture or pasted object on this page, not shown here)

[3] = test system: MOLM-14 cells transduced with FLT3 TKD point mutations (D835Y, D835V and F691L); assay: MTS viability of MOLM-14 cells with FLT3 alleles; type: cell-based; conditions: 72 h
MOLM-13 xenografts = assay: MOLM-13 subcutaneous xenograft; type: in vivo; conditions: MOLM-13, SCID mice; AC220 10 mg/kg QD, other doses not given
Description: as §1

[4] = test system: MV-4-11 (FLT3-ITD+) cells; assay: Western blot of FLT3/PIM downstream signaling; type: cell-based; conditions: MV-4-11, 4 hours
Method: (§2) Thereafter, we assessed the activities of FLT3-ITD – induced key pro-survival signaling pathways; STAT5, RAF/MEK/ERK and PI3K/AKT (Figure 3). […] Since the expression of a major anti-apoptotic BCL2 family member, MCL1, is regulated by translation, and PIM kinases regulate protein synthesis through 4EBP1, we also assessed the abundance of MCL1.
(§3) Cells were collected, washed twice with cold PBS, and lysed in RIPA buffer and kept on ice for 10 min. Tumor specimens from xenograft studies were homogenized in RIPA buffer using OMNI TH Tissue Homogenizer and kept on ice for 30 min. After incubation, cell and tumor lysates were centrifuged at 13,000×g at 4°C for 10 min and the supernatants were stored at −80°C until use. Protein concentration was measured using the Bradford method. For SDS-PAGE, 50 μg of protein in the Laemmli sample buffer was loaded onto 10% polyacrylamide gels and electrophoresed. Thereafter, proteins were transferred onto polyvinylidene fluoride (PVDF) membranes (Millipore). After blocking with 5% non-fat dry milk/TBS-T or 2% BSA/TBS-T, membranes were incubated with specific primary antibodies (listed in Supplementary Table 2) at 4 °C overnight. After extensive washing in PBS-T, membranes were incubated for 60 min with appropriate secondary peroxidase-conjugated IgG. The immunoreactive proteins were detected using an enhanced chemiluminescence (ECL) substrate (GE Healthcare) and visualized with Hyperfilm-ECL (GE Healthcare Biosciences).

MOLM-16 (FLT3-WT) cells = assay: Western blot of FLT3/PIM downstream signaling; type: cell-based; conditions: MOLM-16, 4 hours
Method: as §2, §3

For CC(C)(C)c1cc(NC(=O)Nc2ccc(-c3cn4c(n3)sc3cc(OCCN5CCOCC5)ccc34)cc2)no1 [AC220], the GI50 (SKM-1; Homo sapiens) was 1130 nM, the CC50 (SKM-1; Homo sapiens) was 7790 nM and the GI50 (KASUMI-6; 72 h) was < 5 nM. It also gave a GI50 (RS4;11; Homo sapiens, RS4-11, 72 h) of 132 nM, a CC50 (RS4;11; Homo sapiens, RS4-11, 72 h) of 6960 nM and a GI50 (GDM-1; Homo sapiens) of 33 nM. The GI50 (KG-1; Homo sapiens) was 210 nM, the CC50 (KG-1; Homo sapiens) was > 10000 nM and the GI50 (MOLM-13; Homo sapiens) was < 5 nM. For the same compound, the CC50 (MOLM-13; Homo sapiens) was 42 nM, the GI50 (KASUMI-3; Kasumi-3, 72 h) was < 5 nM and the CC50 (KASUMI-3; Kasumi-3, 72 h) was < 5 nM. The GI50 (MOLM-14) was < 5 nM, the CC50 (MOLM-14; read-out: LC50) was 196 nM and the GI50 (EOL-1; Homo sapiens, EOL1, 72 h) was < 5 nM. For the same compound, the GI50 (SKNO-1) was 6 nM, the GI50 (OCI-AML-2; Homo sapiens, OCI-AML2, 72 h) was 499 nM and the CC50 (OCI-AML-2; Homo sapiens, OCI-AML2, 72 h, read-out: LC50) was 1240 nM. For the same compound, the GI50 (MV-4-11 [1]; Homo sapiens, MV4-11, 72 h) was < 5 nM, the CC50 (MV-4-11 [1]; Homo sapiens, MV4-11, 72 h, read-out: LC50) was < 5 nM and the GI50 (MOLM-16; MOLM16, 72 h) was 688 nM. The CC50 (MOLM-16; MOLM16, 72 h, read-out: LC50) was 8230 nM, the GI50 (MOLM-6; 72 h) was 681 nM and the CC50 (MOLM-6; 72 h) was > 10000 nM. The GI50 (PL-21) was 412 nM, the GI50 (OCI-AML-3; Homo sapiens) was 1180 nM and the CC50 (OCI-AML-3; Homo sapiens, read-out: LC50) was > 10000 nM. For the same compound, the GI50 (SIG-M5; Homo sapiens) was 558 nM and the CC50 (SIG-M5; Homo sapiens) was 3090 nM.

For N[C@@H]1CCCN(c2c(/C=C3\SC(=O)NC3=O)cccc2-c2ccccc2)C1 [AZD1208], the GI50 (SKM-1; dilutions starting at 10 µM) was > 10000 nM, the CC50 (SKM-1; 50% death relative to T0) was > 10000 nM and the GI50 (KASUMI-6; KASUMI-6, 72 h, dilutions starting at 10 µM) was 19 nM. For the same compound, the GI50 (RS4;11; RS4;11, 72 h, dilutions starting at 10 µM) was 4220 nM, the CC50 (RS4;11; RS4;11, 72 h, 50% death relative to T0) was > 10000 nM and the GI50 (GDM-1; dilutions starting at 10 µM) was 506 nM. For the same compound, the GI50 (KG-1; dilutions starting at 10 µM) was 20 nM, the CC50 (KG-1; 50% death relative to T0) was > 10000 nM and the GI50 (MOLM-13; dilutions starting at 10 µM) was 306 nM. For the same compound, the CC50 (MOLM-13; 50% death relative to T0) was > 10000 nM, the GI50 (KASUMI-3; KASUMI-3, 72 h, dilutions starting at 10 µM) was 57 nM and the CC50 (KASUMI-3; KASUMI-3, 72 h, 50% death relative to T0) was 4630 nM. It also gave a TGI (KG-1 (FLT3-WT) tumor) of 59.9%, a GI50 (EOL-1; EOL-1, 72 h, dilutions starting at 10 µM) of 89 nM and a GI50 (SKNO-1; dilutions starting at 10 µM) of 5 nM. The GI50 (OCI-AML-2; OCI-AML-2, 72 h, dilutions starting at 10 µM) was 333 nM, the “combination of AZD1208 and AC220” value (MV-4-11 [2]) was “synergistic effect” and the “viability of MOLM-14 cells with FLT3-TKD mutants versus FLT3-ITD or parental cells” value [3] was “only marginally affected the viability”. The GI50 (MV-4-11 [1]; MV-4-11, 72 h, dilutions starting at 10 µM) was 1460 nM, the GI50 (MOLM-16; MOLM-16, 72 h, dilutions starting at 10 µM) was 16 nM and the GI50 (MOLM-6; MOLM-6, 72 h, dilutions starting at 10 µM) was 973 nM. For the same compound, the CC50 (MOLM-6; MOLM-6, 72 h, 50% death relative to T0) was > 10000 nM, the GI50 (PL-21; dilutions starting at 10 µM) was > 10000 nM and the GI50 (OCI-AML-3; dilutions starting at 10 µM) was > 10000 nM. The TGI (MOLM-13 xenografts) was 19.5%, the MCL1 abundance [4] was “did not alter” and the STAT5 signaling [4] was “did not change”. For the same compound, the “S6 (S235/236) phosphorylation” value (MOLM-16 (FLT3-WT) cells) was “profound inhibition”, the GI50 (SIG-M5; dilutions starting at 10 µM) was > 10000 nM and the CC50 (SIG-M5; 50% death relative to T0) was > 10000 nM.
